pIC50: −log10 of the molar value.
Key:
[1] = system: human umbilical cord fibroblast (HUCF) cells; assay: Induction of ALP positive colonies from HUCF, single induction cycle; type: cell-based; conditions: one induction cycle, 7 days in NSC media
Protocol: At passage 17, HUCF cells were labelled with an anti-p75NTR antibody and underwent cell sorting for p75-NTR expression as described below, p75NTR-negative cells were used for all experiments of the induction by small molecules described below. Two hours before induction, p75-NTR^− HUCF were seeded at 1.4×10^5 per 35 mm tissue culture dishes coated with poly-D-lysine. On Day 1, the cells were induced in human induced pluripotent stem cell culture medium (HIPS) (DMEM/F12 supplemented with 25% KSR (Invitrogen), 1% non-essential amino acids (Invitrogen), 1% L-glutamine (Invitrogen), 50 units ml-1 penicillin, 50 μg ml-1 streptomycin, 10 ng ml-1 bFGF, and 0.1 mM β-mercaptoethanol (Invitrogen)) containing various combinations of small molecules as described below. The small molecules were used at the following concentrations: 0.5 μM PD0325901, 0.5 μM PD184352 (Millipore Merck), 72 nM U0216 (Millipore Merck), 0.4 μM RG108. […] 5-aza-2′-deoxycytidine (Millipore Merck) and 1 μM BIX01294. On day 2, the media was replaced with stem cell media (SCM) in the absence of small molecules as described in Example 1, except where indicated, the media was HIPS media in the absence of small molecules. On day 4, the cells were dissociated using 1 ml (1×) Tryple-E enzyme (Invitrogen) and seeded on 35 mm Petri dish with Neural Stem Cell (NSC) media (Neurobasal Medium (Invitrogen) supplemented with 10 ng/m bFGF and EGF with 50 units/ml penicillin, 50 μg/ml streptomycin). Colonies were maintained in NSC media for 7 days to induce neural stem cells unless stated otherwise.
Cells were induced with a combination of small molecules as described above and stained with ALP as described in Example 1, and examined using phase contrast microscopy.

[2] = system: mouse embryonic fibroblasts (MEF); assay: Induction of SMINS cells / ALP-positive neurospheres from MEF, 6 induction cycles; type: cell-based; conditions: withdrawal of individual small molecules from the combination
Protocol: (§1) Mouse embryonic fibroblasts (MEF) and mouse adult tail-tip fibroblasts (TTF) were isolated from C57/BL6 mice as described previously^2. Both cell types (ie MEF and TTF) were cultured in MEF medium (Dulbecco's Modified Eagle Medium (DMEM; Invitrogen Corporation, Carlsbad, Calif., United States of America) containing 10% Fetal Bovine Serum (FBS; Thermo Fisher Scientific, Waltham, Mass., United. States of America), 50 units/ml penicillin and 50 μg/ml streptomycin (Invitrogen)). Native NS cells were cultured from mouse brain at E12-E14 as positive controls in neural stem (NS) cell media.
(§2) 35 mm tissue culture dishes were coated with feeder cells (fibroblasts cultured from mouse embryo and seeded at 1.4×10^5 cells per 35 mm tissue culture dish) before induction. The MEF (passage 3) or TTF were seeded at 1.4×10^5 per 35 mm feeder cell-coated dish. The cells were induced in 6 cycles. […] The cells were then cultured in SCM in the absence of the small molecules for the next two days. Then, the cycle was repeated 5 times. Next, the cells were passaged and suspended in a drop of […] containing at least 50 cells for two days. Finally, the cells were cultured in the neural stem (NS) cell medium (DMEM/F12 (Invitrogen) supplemented with B-27 (1:50; Gibco Inc, Billings, Mont., United States of America), 50 units ml^−1 penicillin, 50 μg ml^−1 streptomycin, 8 mM HEPES buffer, 20 ng ml^−1 epidermal growth factor (EGF), 10 ng ml^−1 basic fibroblast growth factor (bFGF) for two weeks.
(§3) ES culture medium (also referred to as SCM herein) was added to NS and SMINS cells overnight. Alkaline phosphatase staining was carried out according to the manufacturer's protocol (Hoffman-La Roche, Basel, Switzerland). For the immunofluorescence staining, cells were washed with phosphate buffered saline (PBS) and then fixed with 4% paraformaldehyde for 10 min. After washing twice with PBS, the cells were permeabilised with 0.1% Triton X-100 for 20 min. Cells were then washed twice and blocked in blocking buffer (a solution of PBS containing 1% FBS and 4% bovine serum albumin (BSA)) for 1 hour. […]

[3] = system: mouse adult tail-tip fibroblasts (TTF); assay: Induction of SMINS cells / ALP-positive neurospheres from TTF; type: cell-based
Protocol: as §1, §2, §3

ALK4 = target: T1, ALK4 (Homo sapiens, UniProt P36896); conditions: cited from earlier work
T1 sequence (P36896 24-505): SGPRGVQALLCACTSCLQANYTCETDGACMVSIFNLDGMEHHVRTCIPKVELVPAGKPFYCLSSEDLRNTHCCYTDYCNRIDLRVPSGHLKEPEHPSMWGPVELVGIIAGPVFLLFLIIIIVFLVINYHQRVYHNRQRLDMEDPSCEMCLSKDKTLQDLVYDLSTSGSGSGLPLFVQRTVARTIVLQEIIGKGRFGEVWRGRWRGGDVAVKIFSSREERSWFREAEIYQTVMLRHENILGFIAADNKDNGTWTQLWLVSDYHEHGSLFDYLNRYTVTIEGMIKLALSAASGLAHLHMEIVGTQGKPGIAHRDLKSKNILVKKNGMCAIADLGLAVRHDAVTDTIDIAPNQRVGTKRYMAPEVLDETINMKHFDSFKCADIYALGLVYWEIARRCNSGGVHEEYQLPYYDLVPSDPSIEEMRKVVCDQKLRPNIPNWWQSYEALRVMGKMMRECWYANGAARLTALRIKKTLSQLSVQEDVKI

ALK1 = ALK1 (Homo sapiens, UniProt P37023); conditions: cited from earlier work
Chain of ALK1 (P37023 22-503, species assumed): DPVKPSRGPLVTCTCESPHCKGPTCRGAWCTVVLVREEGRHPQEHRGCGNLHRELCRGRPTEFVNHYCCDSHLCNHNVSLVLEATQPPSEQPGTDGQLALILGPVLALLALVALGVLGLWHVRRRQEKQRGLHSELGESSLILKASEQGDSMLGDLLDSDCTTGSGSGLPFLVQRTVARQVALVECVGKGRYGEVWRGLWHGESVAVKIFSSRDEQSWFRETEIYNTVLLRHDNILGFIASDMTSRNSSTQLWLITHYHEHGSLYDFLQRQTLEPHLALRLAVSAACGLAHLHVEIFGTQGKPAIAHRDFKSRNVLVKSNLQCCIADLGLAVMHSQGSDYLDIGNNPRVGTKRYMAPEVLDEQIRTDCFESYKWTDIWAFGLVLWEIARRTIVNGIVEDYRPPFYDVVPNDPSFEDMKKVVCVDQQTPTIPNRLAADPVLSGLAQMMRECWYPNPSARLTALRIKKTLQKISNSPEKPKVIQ

ALK2 = target: T2, ALK2 (Homo sapiens, UniProt Q04771); conditions: cited from earlier work
T2 sequence (Q04771 21-509): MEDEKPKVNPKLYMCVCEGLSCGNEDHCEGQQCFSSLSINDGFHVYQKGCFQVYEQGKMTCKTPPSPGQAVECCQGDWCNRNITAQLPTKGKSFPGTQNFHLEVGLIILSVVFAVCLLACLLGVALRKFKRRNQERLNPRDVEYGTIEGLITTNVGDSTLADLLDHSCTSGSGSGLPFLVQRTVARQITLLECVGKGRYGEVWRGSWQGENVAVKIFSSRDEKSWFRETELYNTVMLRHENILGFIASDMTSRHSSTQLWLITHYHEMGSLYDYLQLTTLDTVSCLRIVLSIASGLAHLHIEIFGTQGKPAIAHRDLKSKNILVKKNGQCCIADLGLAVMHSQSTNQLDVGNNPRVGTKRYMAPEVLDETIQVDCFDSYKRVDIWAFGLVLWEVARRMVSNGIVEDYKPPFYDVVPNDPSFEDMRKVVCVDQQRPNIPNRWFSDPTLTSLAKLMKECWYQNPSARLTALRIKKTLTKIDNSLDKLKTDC

ALK3 = ALK3 (Homo sapiens, UniProt P36894); conditions: cited from earlier work
Chain of ALK3 (P36894 24-532): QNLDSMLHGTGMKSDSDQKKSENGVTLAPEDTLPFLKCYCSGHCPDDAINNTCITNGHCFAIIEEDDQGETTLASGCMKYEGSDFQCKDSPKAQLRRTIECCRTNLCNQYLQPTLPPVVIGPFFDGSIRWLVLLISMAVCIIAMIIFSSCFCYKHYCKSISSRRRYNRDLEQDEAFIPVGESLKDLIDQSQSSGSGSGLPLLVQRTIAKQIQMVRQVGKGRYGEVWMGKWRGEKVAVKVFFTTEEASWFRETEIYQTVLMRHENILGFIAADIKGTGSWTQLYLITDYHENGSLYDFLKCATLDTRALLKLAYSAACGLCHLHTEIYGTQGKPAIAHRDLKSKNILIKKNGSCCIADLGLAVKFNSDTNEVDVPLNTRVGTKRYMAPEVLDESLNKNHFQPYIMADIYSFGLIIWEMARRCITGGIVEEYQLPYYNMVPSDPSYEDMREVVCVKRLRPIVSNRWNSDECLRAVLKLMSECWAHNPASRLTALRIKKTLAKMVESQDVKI

ALK6 = ALK6 (Homo sapiens, UniProt O00238); conditions: cited from earlier work
Chain of ALK6 (O00238 14-502): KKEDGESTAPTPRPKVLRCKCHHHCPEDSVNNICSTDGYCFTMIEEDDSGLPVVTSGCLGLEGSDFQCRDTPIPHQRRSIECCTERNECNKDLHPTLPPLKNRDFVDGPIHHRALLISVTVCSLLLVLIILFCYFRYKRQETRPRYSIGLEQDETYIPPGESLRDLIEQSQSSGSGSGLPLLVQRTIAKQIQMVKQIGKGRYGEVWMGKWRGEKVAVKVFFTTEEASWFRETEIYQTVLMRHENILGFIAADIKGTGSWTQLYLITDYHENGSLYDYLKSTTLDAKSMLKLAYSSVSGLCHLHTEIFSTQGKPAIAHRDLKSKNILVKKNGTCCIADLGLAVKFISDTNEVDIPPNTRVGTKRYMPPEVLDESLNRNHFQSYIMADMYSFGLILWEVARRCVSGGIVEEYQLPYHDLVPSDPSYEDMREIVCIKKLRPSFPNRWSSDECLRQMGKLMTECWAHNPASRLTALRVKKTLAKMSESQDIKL

cell reprogramming = conditions: cited from earlier work

| Compound | induction of ALP positive colonies from HUCF [1] | essential for generation of SMINS-MEF cells [2] | ALP-positive neurosphere produced from TTF [3] | also measured |
| --- | --- | --- | --- | --- |
| O=C(NOCC1CC1)c1ccc(F)c(F)c1Nc1ccc(I)cc1Cl [PD184352, 2-(2-chloro-4-iodo-phenylamino)-N-cyclopropylmethoxy-3,4-difluoro-benzamide] | induced ALP positive colonies |  |  |  |
| O=C(NOCC(O)CO)c1ccc(F)c(F)c1Nc1ccc(I)cc1F (stereo not shown) [PD325901, N-(2,3-dihydroxy-propoxy)-3,4-difluoro-2-(2-fluoro-4-iodo-phenylamino)-benzamide] | induced ALP positive colonies | required for the induction | Yes |  |
| Cc1cccc(-c2nn(C(=S)Nc3ccccc3)cc2-c2ccnc3ccccc23)n1 [A83-01, 3-(6-Methyl-2-pyridinyl)-N-phenyl-4-(4-quinolinyl)-1H-pyrazole-1-carbothioamide] |  |  |  | pIC50 (ALK4): 7.92; inhibition of ALK1 (ALK1): only weakly inhibits; inhibition of ALK2 (ALK2): only weakly inhibits; inhibition of ALK3 (ALK3): only weakly inhibits; inhibition of ALK6 (ALK6): only weakly inhibits |
| O=C(O)[C@H](Cc1c[nH]c2ccccc12)N1C(=O)c2ccccc2C1=O [RG108, 1H-Indole-3-propanoic acid, α-(1,3-dihydro-1,3-dioxo-2H-isoindol-2-yl)-, (αS)—] |  | required for the induction | No |  |
| N#CC(=C(/N)Sc1ccccc1N)/C(C#N)=C(/N)Sc1ccccc1N [U0216] | induced ALP positive colonies |  |  |  |
| CCCC(CCC)C(=O)O [valproic acid] |  |  |  | improvement of the efficiency of cell reprogramming by some induction processes (cell reprogramming): at least 100 fold |

Reference: patent US10196606B2, “Method of producing multipotent stem cells” (FLINDERS UNIVERSITY OF SOUTH AUSTRALIA, priority 2011, dated 2019)
